Laboratory results: patent US20240252488A1 (KOREA RESEARCH INSTITUTE OF CHEMICAL TECHNOLOGY, priority 2020, published 2024)

What was measured:
FADD−/− Jurkat cells = test: Necroptosis inhibition assay, TNF-α-induced necroptosis (CellTiter-Glo 2.0); assay type: cell-based, human; conditions: TNF-α 15 ng/mL, FADD−/− Jurkat cells; for Necroptosis inhibition assay (Rescue %) 1 μM: compound 1 μM; for Necroptosis inhibition assay (Rescue %) 10 μM: compound 10 μM
Method in brief: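 Cmpd 0.1/1/10 μM final, 30 min RT preincubation; TNF-α 15 ng/mL final; 20–24 h, 37° C, 5% CO2. Readout: ATP luminescence (reagent 1:3 in PBS), 0.5 s/well. Cytotoxicity and % necroptosis inhibition calculated from signal.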

MLKL [1] = target: T1, MLKL (Homo sapiens, UniProt Q8NB16); test: MLKL degradation assay in HepG2 cell line (western blot); assay type: cell-based; parameters: endogenous in cells; host or cells: HepG2 or HaCaT; conditions: cell line not given; for Degradation assay (Degradation %) 1 μM: compound 1 μM; for Degradation assay (Degradation %) 10 μM: compound 10 μM
T1 sequence (Q8NB16 1-471): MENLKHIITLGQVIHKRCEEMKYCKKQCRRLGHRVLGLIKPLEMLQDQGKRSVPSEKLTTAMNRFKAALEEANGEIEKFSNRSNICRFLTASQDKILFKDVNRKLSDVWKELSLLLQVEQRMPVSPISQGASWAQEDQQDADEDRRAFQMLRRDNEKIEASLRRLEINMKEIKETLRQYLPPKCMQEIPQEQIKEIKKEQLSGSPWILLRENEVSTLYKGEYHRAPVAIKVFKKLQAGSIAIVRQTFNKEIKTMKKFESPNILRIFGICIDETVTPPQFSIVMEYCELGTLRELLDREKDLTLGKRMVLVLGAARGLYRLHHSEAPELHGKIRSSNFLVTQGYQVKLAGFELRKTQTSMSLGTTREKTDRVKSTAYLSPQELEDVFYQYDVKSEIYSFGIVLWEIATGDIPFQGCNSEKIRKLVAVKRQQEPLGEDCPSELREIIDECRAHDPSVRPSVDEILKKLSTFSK
Method in brief: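 HepG2, cpd final 1 or 10 μM, 20-24 h, 37 °C/5% CO2; RIPA lysis, BCA-normalized, 10-15 μg/lane SDS-PAGE, western blot, ECL read-out.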

MLKL [2] = target: T1, MLKL; test: Measurement of binding affinity with MLKL receptor (competitive binding assay, Kd); parameters: made in house; host or cells: HEK 293 cell line (T7 phage in E. coli BL21-derived host is also described)
Method in brief: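 Kd comes from a bead-based competition format: compound-dependent loss of DNA-tagged, HEK 293-expressed MLKL capture, measured as eluate kinase by qPCR. Final DMSO is 0.9%.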

Degradation assay (Degradation %) 1 μM (MLKL [1]) [%] | Degradation assay (Degradation %) 10 μM (MLKL [1]) [%] | Kd (MLKL [2]) [nM] | Compound | Necroptosis inhibition assay (Rescue %) 1 μM (FADD−/− Jurkat cells) [%] | Necroptosis inhibition assay (Rescue %) 10 μM (FADD−/− Jurkat cells) [%]
87.42 | 81.07 | 2.2 | Nc1ncc(-c2cnn(C3CCN(CCOC4CCN(C(=O)Cc5cccc(NC6=CC(=O)N(C7CCC(=O)NC7=O)C6=O)c5)CC4)CC3)c2)nc1C(=O)O[C@@H](C(=O)Nc1ccc(F)cc1)c1ccccc1 (stereo partly drawn) [TDH-496, (R)-2-((4-fluorophenyl)amino)-2-oxo-1-phenylethyl 3-amino-6-(1-(1-(2-((1-(2-(3-((1-(2,6-dioxopiperidin-3-yl)-2,5-dioxo-2,5-dihydro-1H-pyrrol-3-yl)amino)phenyl)acetyl)piperidin-4-yl)oxy)ethyl)piperidin-4-yl)-1H-pyrazol-4-yl)pyrazine-2-carboxylate] | 27.23 | 7.85
73.89 | 57.10 | 0.61 | COc1ccc(C(=O)NCC2CCC(CN3CCC(n4cc(-c5cnc(N)c(C(=O)O[C@@H](C(=O)Nc6ccc(F)cc6)c6ccccc6)n5)cn4)CC3)CC2)cc1N1CCC(=O)NC1=O (stereo partly drawn) [TDH-497, (R)-2-((4-fluorophenyl)amino)-2-oxo-1-phenylethyl 3-amino-6-(1-(1-(((1r,4r)-4-((3-(2,4-dioxotetrahydropyrimidin-1(2H)-yl)-4-methoxybenzamido)methyl)cyclohexyl)methyl)piperidin-4-yl)-1H-pyrazol-4-yl)pyrazine-2-carboxylate] | 13.48 | −1.14
86.68 | 89.27 | 3.7 | Nc1ncc(-c2cnn(C3CCN(C[C@H]4CC[C@H](CNC(=O)Cc5cccc(NC6=CC(=O)N(C7CCC(=O)NC7=O)C6=O)c5)CC4)CC3)c2)nc1C(=O)O[C@@H](C(=O)Nc1ccc(F)cc1)c1ccccc1 (stereo partly drawn) [TDH-498, (R)-2-((4-fluorophenyl)amino)-2-oxo-1-phenylethyl 3-amino-6-(1-(1-(((1r,4r)-4-((2-(3-((1-(2,6-dioxopiperidin-3-yl)-2,5-dioxo-2,5-dihydro-1H-pyrrol-3-yl)amino)phenyl)acetamido)methyl)cyclohexyl)methyl)piperidin-4-yl)-1H-pyrazol-4-yl)pyrazine-2-carboxylate] | 23.9 | 16.6
90.60 | 91.41 | 0.41 | COc1ccc(C(=O)N2CCC(CN3CCC4(CC3)CC(N3CCC(n5cc(-c6cnc(N)c(C(=O)O[C@@H](C(=O)Nc7ccc(F)cc7)c7ccccc7)n6)cn5)CC3)C4)CC2)cc1N1CCC(=O)NC1=O [TDH-499, (R)-2-((4-fluorophenyl)amino)-2-oxo-1-phenylethyl 3-amino-6-(1-(1-(7-((1-(3-(2,4-dioxotetrahydropyrimidin-1(2H)-yl)-4-methoxybenzoyl)piperidin-4-yl)methyl)-7-azaspiro[3.5]nonan-2-yl)piperidin-4-yl)-1H-pyrazol-4-yl)pyrazine-2-carboxylate] | 45.83 | 11.8
80.41 | 83.21 | 0.64 | Nc1ncc(-c2cnn(C3CCN(C4CC5(CCN(CC6CCN(C(=O)Cc7cccc(NC8=CC(=O)N(C9CCC(=O)NC9=O)C8=O)c7)CC6)CC5)C4)CC3)c2)nc1C(=O)O[C@@H](C(=O)Nc1ccc(F)cc1)c1ccccc1 (stereo partly drawn) [TDH-500, (R)-2-((4-fluorophenyl)amino)-2-oxo-1-phenylethyl 3-amino-6-(1-(1-(7-((1-(2-(3-((1-(2,6-dioxopiperidin-3-yl)-2,5-dioxo-2,5-dihydro-1H-pyrrol-3-yl)amino)phenyl)acetyl)piperidin-4-yl)methyl)-7-azaspiro[3.5]nonan-2-yl)piperidin-4-yl)-1H-pyrazol-4-yl)pyrazine-2-carboxylate] | 25.16 | 0.16
93.47 | 96.40 | 0.95 | COc1ccc(C(=O)N2CCC(CCN3CCC(CN4CCC(n5cc(-c6cnc(N)c(C(=O)O[C@@H](C(=O)Nc7ccc(F)cc7)c7ccccc7)n6)cn5)CC4)CC3)CC2)cc1N1CCC(=O)NC1=O [TDH-501, (R)-2-((4-fluorophenyl)amino)-2-oxo-1-phenylethyl 3-amino-6-(1-(1-((1-(2-(1-(3-(2,4-dioxotetrahydropyrimidin-1(2H)-yl)-4-methoxybenzoyl)piperidin-4-yl)ethyl)piperidin-4-yl)methyl)piperidin-4-yl)-1H-pyrazol-4-yl)pyrazine-2-carboxylate] | 92.23 | 71.17
85.39 | 91.54 | 0.42 | COc1ccc(C(=O)N2CCC(C(=O)N3CCC(CCN4CCC(CN5CCC(n6cc(-c7cnc(N)c(C(=O)O[C@@H](C(=O)Nc8ccc(F)cc8)c8ccccc8)n7)cn6)CC5)CC4)CC3)CC2)cc1N1CCC(=O)NC1=O [TDH-502, (R)-2-((4-fluorophenyl)amino)-2-oxo-1-phenylethyl 3-amino-6-(1-(1-((1-(2-(1-(1-(3-(2,4-dioxotetrahydropyrimidin-1(2H)-yl)-4-methoxybenzoyl)piperidine-4-carbonyl)piperidin-4-yl)ethyl)piperidin-4-yl)methyl)piperidin-4-yl)-1H-pyrazol-4-yl)pyrazine-2-carboxylate] | 54.75 | 66.18
93.09 | – | 0.44 | COc1ccc(C(=O)N2CCC3(CC2)CC(N2CCC(CN4CCC(n5cc(-c6cnc(N)c(C(=O)O[C@@H](C(=O)Nc7ccc(F)cc7)c7ccccc7)n6)cn5)CC4)CC2)C3)cc1N1CCC(=O)NC1=O [TDH-503, (R)-2-((4-fluorophenyl)amino)-2-oxo-1-phenylethyl 3-amino-6-(1-(1-((1-(7-(3-(2,4-dioxotetrahydropyrimidin-1(2H)-yl)-4-methoxybenzoyl)-7-azaspiro[3.5]nonan-2-yl)piperidin-4-yl)methyl)piperidin-4-yl)-1H-pyrazol-4-yl)pyrazine-2-carboxylate] | 94.80 | 14.61
93.87 | 94.41 | 0.23 | COc1ccc(C(=O)N2CCC3(CC2)CC(N2CCC(CCN4CCC(n5cc(-c6cnc(N)c(C(=O)O[C@@H](C(=O)Nc7ccc(F)cc7)c7ccccc7)n6)cn5)CC4)CC2)C3)cc1N1CCC(=O)NC1=O [TDH-504, (R)-2-((4-fluorophenyl)amino)-2-oxo-1-phenylethyl 3-amino-6-(1-(1-(2-(1-(7-(3-(2,4-dioxotetrahydropyrimidin-1(2H)-yl)-4-methoxybenzoyl)-7-azaspiro[3.5]nonan-2-yl)piperidin-4-yl)ethyl)piperidin-4-yl)-1H-pyrazol-4-yl)pyrazine-2-carboxylate] | 94.61 | 33.71
90.52 | 94.63 | 0.36 | COc1ccc(C(=O)N2CCC(CN3CCC(CCN4CCC(n5cc(-c6cnc(N)c(C(=O)O[C@@H](C(=O)Nc7ccc(F)cc7)c7ccccc7)n6)cn5)CC4)CC3)CC2)cc1N1CCC(=O)NC1=O [TDH-505, (R)-2-((4-fluorophenyl)amino)-2-oxo-1-phenylethyl 3-amino-6-(1-(1-(2-(1-((1-(3-(2,4-dioxotetrahydropyrimidin-1(2H)-yl)-4-methoxybenzoyl)piperidin-4-yl)methyl)piperidin-4-yl)ethyl)piperidin-4-yl)-1H-pyrazol-4-yl)pyrazine-2-carboxylate] | 102.00 | 76.87
